Results from patent US11872262B2, “Means and methods for treating bacterial infections” (VIB VZW, priority 2017, dated 2024).
Residues, ends and D or L forms follow the SMILES beside them.

Test system: E. coli O157:H7
Format: cell-based, Escherichia coli
Settings: screening-stage peptides tested at 1, 6, 12 and 25 μg/mL
In short: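 Tandem-repeat aggregation-prone-region peptides from DMSO stocks were tested for growth inhibition of E. coli O157:H7 at 1, 6, 12 and 25 μg/mL.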

Going from CC(C)C[C@H](NC(=O)CNC(=O)[C@H](CCCNC(=N)N)NC(=O)[C@@H]1CCCN1C(=O)[C@H](CCCNC(=N)N)NC(=O)[C@H](CCCNC(=N)N)NC(=O)[C@H](C)NC(=O)[C@H](CCCNC(=N)N)NC(=O)[C@H](CC(C)C)NC(=O)[C@H](C)NC(=O)[C@H](CC(C)C)NC(=O)[C@H](CC(C)C)NC(=O)CNC(=O)[C@@H](N)CCCNC(=N)N)C(=O)N[C@@H](CC(C)C)C(=O)N[C@@H](C)C(=O)N[C@@H](CC(C)C)C(=O)N[C@@H](CC(C)C)C(=O)N[C@@H](C)C(=O)N[C@@H](CCCNC(=N)N)C(=O)N[C@@H](CCCNC(=N)N)C(=O)O [Peptide P114] (H-RGLLALRARRPRGLLALLARR-OH; N-terminus and C-terminus assumed) to CC(C)C[C@H](NC(=O)CNC(=O)[C@H](CCCNC(=N)N)NC(=O)[C@@H]1CCCN1C(=O)[C@H](CCCNC(=N)N)NC(=O)[C@H](CCCNC(=N)N)NC(=O)[C@H](CCC(N)=O)NC(=O)[C@H](CC(C)C)NC(=O)[C@H](C)NC(=O)[C@H](CCCNC(=N)N)NC(=O)[C@H](CC(C)C)NC(=O)[C@H](CC(C)C)NC(=O)CNC(=O)[C@@H](N)CCCNC(=N)N)C(=O)N[C@@H](CC(C)C)C(=O)N[C@@H](CC(C)C)C(=O)N[C@@H](C)C(=O)N[C@@H](CC(C)C)C(=O)N[C@@H](CCC(N)=O)C(=O)N[C@@H](CCCNC(=N)N)C(=O)N[C@@H](CCCNC(=N)N)C(=O)O [Peptide P124] (H-RGLLRALQRRPRGLLLALQRR-OH; N-terminus and C-terminus assumed), the “E. coli O157 (apparent MIC in screen)” value falls from 25 µg/mL to 12 µg/mL (2.1-fold).

CC(C)C[C@H](NC(=O)[C@H](C)NC(=O)[C@H](CCCNC(=N)N)NC(=O)[C@@H]1CCCN1C(=O)[C@H](CCCNC(=N)N)NC(=O)[C@H](CCCNC(=N)N)NC(=O)[C@H](CC(C)C)NC(=O)[C@@H](NC(=O)[C@H](C)NC(=O)[C@@H](NC(=O)[C@H](CC(C)C)NC(=O)[C@H](CC(C)C)NC(=O)[C@H](C)NC(=O)[C@@H](N)CCCNC(=N)N)[C@@H](C)O)C(C)C)C(=O)N[C@@H](CC(C)C)C(=O)N[C@H](C(=O)N[C@@H](C)C(=O)N[C@H](C(=O)N[C@@H](CC(C)C)C(=O)N[C@@H](CCCNC(=N)N)C(=O)N[C@@H](CCCNC(=N)N)C(=O)O)C(C)C)[C@@H](C)O [Peptide P16] (H-RALLTAVLRRPRALLTAVLRR-OH; N-terminus and C-terminus assumed) and CC(C)C[C@H](NC(=O)[C@H](C)NC(=O)[C@H](CCCNC(=N)N)NC(=O)[C@@H]1CCCN1C(=O)[C@H](CCCNC(=N)N)NC(=O)[C@H](CCCNC(=N)N)NC(=O)[C@H](CC(C)C)NC(=O)[C@H](CC(C)C)NC(=O)[C@H](C)NC(=O)[C@@H](NC(=O)[C@H](C)NC(=O)[C@H](CC(C)C)NC(=O)[C@H](C)NC(=O)[C@@H](N)CCCNC(=N)N)C(C)C)C(=O)N[C@@H](C)C(=O)N[C@H](C(=O)N[C@@H](C)C(=O)N[C@@H](CC(C)C)C(=O)N[C@@H](CC(C)C)C(=O)N[C@@H](CCCNC(=N)N)C(=O)N[C@@H](CCCNC(=N)N)C(=O)O)C(C)C [Peptide P12] (H-RALAVALLRRPRALAVALLRR-OH; N-terminus and C-terminus assumed) are the same in “E. coli O157 (apparent MIC in screen)” value: 25 µg/mL for the first, 25 µg/mL for the second.

Going from CC(C)C[C@H](NC(=O)[C@H](C)NC(=O)[C@H](CCCNC(=N)N)NC(=O)[C@@H]1CCCN1C(=O)[C@H](CCCNC(=N)N)NC(=O)[C@H](CCCNC(=N)N)NC(=O)[C@H](CC(C)C)NC(=O)[C@H](CC(C)C)NC(=O)[C@@H](NC(=O)[C@@H](NC(=O)[C@H](CC(C)C)NC(=O)[C@H](CC(C)C)NC(=O)[C@H](C)NC(=O)[C@@H](N)CCCNC(=N)N)[C@@H](C)O)[C@@H](C)O)C(=O)N[C@@H](CC(C)C)C(=O)N[C@H](C(=O)N[C@H](C(=O)N[C@@H](CC(C)C)C(=O)N[C@@H](CC(C)C)C(=O)N[C@@H](CCCNC(=N)N)C(=O)N[C@@H](CCCNC(=N)N)C(=O)O)[C@@H](C)O)[C@@H](C)O [Peptide P5] (H-RALLTTLLRRPRALLTTLLRR-OH; N-terminus and C-terminus assumed) to CC[C@H](C)[C@H](NC(=O)[C@H](CC(C)C)NC(=O)[C@H](CC(C)C)NC(=O)[C@H](C)NC(=O)[C@H](CCCNC(=N)N)NC(=O)[C@@H]1CCCN1C(=O)[C@H](CCCNC(=N)N)NC(=O)[C@H](CCCNC(=N)N)NC(=O)[C@H](CC(C)C)NC(=O)[C@H](CC(C)C)NC(=O)[C@@H](NC(=O)[C@@H](NC(=O)[C@H](CC(C)C)NC(=O)[C@H](CC(C)C)NC(=O)[C@H](C)NC(=O)[C@@H](N)CCCNC(=N)N)[C@@H](C)CC)[C@@H](C)O)C(=O)N[C@H](C(=O)N[C@@H](CC(C)C)C(=O)N[C@@H](CC(C)C)C(=O)N[C@@H](CCCNC(=N)N)C(=O)N[C@@H](CCCNC(=N)N)C(=O)O)[C@@H](C)O [Peptide P23] (H-RALLITLLRRPRALLITLLRR-OH; N-terminus and C-terminus assumed), the “E. coli O157 (apparent MIC in screen)” value rises from 12 µg/mL to 25 µg/mL (2.1-fold).

CC(C)C[C@H](NC(=O)[C@H](C)NC(=O)[C@@H](N)CCCNC(=N)N)C(=O)N[C@@H](C)C(=O)N[C@@H](CCCNC(=N)N)C(=O)N[C@@H](C)C(=O)N[C@@H](CC(C)C)C(=O)N[C@@H](CC(C)C)C(=O)N[C@@H](CCCNC(=N)N)C(=O)N[C@@H](CCCNC(=N)N)C(=O)N1CCC[C@H]1C(=O)N[C@@H](CCCNC(=N)N)C(=O)N[C@@H](C)C(=O)N[C@@H](CC(C)C)C(=O)N[C@@H](C)C(=O)N[C@H](C(=O)N[C@@H](C)C(=O)N[C@@H](CC(C)C)C(=O)N[C@@H](CC(C)C)C(=O)N[C@@H](CCCNC(=N)N)C(=O)N[C@@H](CCCNC(=N)N)C(=O)O)C(C)C [Peptide P112] (H-RALARALLRRPRALAVALLRR-OH; N-terminus and C-terminus assumed) and CC(C)C[C@H](NC(=O)[C@H](C)NC(=O)[C@H](CC(C)C)NC(=O)[C@@H](NC(=O)[C@H](CCCNC(=N)N)NC(=O)[C@@H]1CCCN1C(=O)[C@H](CCCNC(=N)N)NC(=O)[C@H](CCCNC(=N)N)NC(=O)[C@H](CC(C)C)NC(=O)[C@H](C)NC(=O)[C@H](CCCNC(=N)N)NC(=O)[C@H](CC(C)C)NC(=O)[C@H](C)NC(=O)[C@H](CC(C)C)NC(=O)[C@@H](NC(=O)[C@@H](N)CCCNC(=N)N)C(C)C)C(C)C)C(=O)N[C@@H](C)C(=O)N[C@@H](C)C(=O)N[C@@H](CC(C)C)C(=O)N[C@@H](CCCNC(=N)N)C(=O)N[C@@H](CCCNC(=N)N)C(=O)O [Peptide P111] (H-RVLALRALRRPRVLALAALRR-OH; N-terminus and C-terminus assumed) are the same in “E. coli O157 (apparent MIC in screen)” value: 25 µg/mL for the first, 25 µg/mL for the second.

Going from CC(C)C[C@H](NC(=O)[C@H](C)NC(=O)[C@@H](N)CCCNC(=N)N)C(=O)N[C@@H](CC(C)C)C(=O)N[C@@H](CCCNC(=N)N)C(=O)N[C@H](C(=O)N[C@@H](CC(C)C)C(=O)N[C@@H](CC(C)C)C(=O)N[C@@H](CCCNC(=N)N)C(=O)N[C@@H](CCCNC(=N)N)C(=O)N1CCC[C@H]1C(=O)N[C@@H](CCCNC(=N)N)C(=O)N[C@@H](C)C(=O)N[C@@H](CC(C)C)C(=O)N[C@@H](CC(C)C)C(=O)N[C@H](C(=O)N[C@H](C(=O)N[C@@H](CC(C)C)C(=O)N[C@@H](CC(C)C)C(=O)N[C@@H](CCCNC(=N)N)C(=O)N[C@@H](CCCNC(=N)N)C(=O)O)[C@@H](C)O)[C@@H](C)O)[C@@H](C)O [Peptide P105] (H-RALLRTLLRRPRALLTTLLRR-OH; N-terminus and C-terminus assumed) to CC[C@H](C)[C@H](NC(=O)[C@H](CC(C)C)NC(=O)[C@H](CC(C)C)NC(=O)[C@H](C)NC(=O)[C@H](CCCNC(=N)N)NC(=O)[C@@H]1CCCN1C(=O)[C@H](CCCNC(=N)N)NC(=O)[C@H](CCCNC(=N)N)NC(=O)[C@H](CC(C)C)NC(=O)[C@H](CC(C)C)NC(=O)[C@@H](NC(=O)[C@@H](NC(=O)[C@H](CCCNC(=N)N)NC(=O)[C@H](CC(C)C)NC(=O)[C@H](C)NC(=O)[C@@H](N)CCCNC(=N)N)[C@@H](C)CC)[C@@H](C)O)C(=O)N[C@H](C(=O)N[C@@H](CC(C)C)C(=O)N[C@@H](CC(C)C)C(=O)N[C@@H](CCCNC(=N)N)C(=O)N[C@@H](CCCNC(=N)N)C(=O)O)[C@@H](C)O [Peptide P123] (H-RALRITLLRRPRALLITLLRR-OH; N-terminus and C-terminus assumed), the “E. coli O157 (apparent MIC in screen)” value rises from 6 µg/mL to 25 µg/mL (4.2-fold).

First: CC(C)C[C@H](NC(=O)[C@H](C)NC(=O)[C@H](CC(C)C)NC(=O)[C@@H](NC(=O)[C@H](CCC(N)=O)NC(=O)[C@H](C)NC(=O)[C@H](CCCNC(=N)N)NC(=O)[C@@H]1CCCN1C(=O)[C@H](CCCNC(=N)N)NC(=O)[C@H](CCCNC(=N)N)NC(=O)[C@H](CC(C)C)NC(=O)[C@H](CC(C)C)NC(=O)[C@H](C)NC(=O)[C@H](CC(C)C)NC(=O)[C@@H](NC(=O)[C@H](CCC(N)=O)NC(=O)[C@H](C)NC(=O)[C@@H](N)CCCNC(=N)N)C(C)C)C(C)C)C(=O)N[C@@H](CC(C)C)C(=O)N[C@@H](CCCNC(=N)N)C(=O)N[C@@H](CCCNC(=N)N)C(=O)O [Peptide P40] (H-RAQVLALLRRPRAQVLALLRR-OH; N-terminus and C-terminus assumed)
Second: CC(C)C[C@H](NC(=O)[C@H](C)NC(=O)[C@H](CC(C)C)NC(=O)[C@H](CCCNC(=N)N)NC(=O)[C@@H]1CCCN1C(=O)[C@H](CCCNC(=N)N)NC(=O)[C@H](CCCNC(=N)N)NC(=O)[C@H](CC(C)C)NC(=O)[C@H](CC(C)C)NC(=O)[C@H](CC(C)C)NC(=O)[C@H](C)NC(=O)[C@H](CC(C)C)NC(=O)[C@H](C)NC(=O)[C@H](CC(C)C)NC(=O)[C@@H](N)CCCNC(=N)N)C(=O)N[C@@H](C)C(=O)N[C@@H](CC(C)C)C(=O)N[C@@H](CC(C)C)C(=O)N[C@@H](CC(C)C)C(=O)N[C@@H](CCCNC(=N)N)C(=O)N[C@@H](CCCNC(=N)N)C(=O)O [Peptide P4] (H-RLALALLLRRPRLALALLLRR-OH; N-terminus and C-terminus assumed)
The “E. coli O157 (apparent MIC in screen)” value of the first is 4.2-fold higher: 25 µg/mL for the first, 6 µg/mL for the second.
